Reference: US5849326A, “Method for treating neuronal diseases via administration of 2-acylaminopropanol derivatives” (Seikagaku Corporation, priority 1993, dated 1998)
Where “and” joins values, the source holds several entries; their conditions need not be identical. Equal values may be shown once.

How the values were obtained:
[1] = test system: cerebral cortexes of rat fetuses (explants); assay: Explant culture of cerebral cortexes, neurocytes having neurites
Text: The effect of neurite extension by administering the medicine after the culture was judged by measuring the number of neurocytes having neurites existing in the explants (the cultured tissues).

B16 melanoma cells = assay: Glycolipid biosynthesis (3H-galactose incorporation into GSL); type: cell-based; conditions: culture for 24 hours
Experimental: B16 melanoma cells derived from neuroectoderm were charged into a culture plate with 12 wells in an amount of 1×10^5 cells/well and cultured for 24 hours in a Dulbecco modified Eagle's medium containing 10% bovine fetal serum. […] After 24 hours, the medium was removed, the cells were washed with 1 ml of a phosphate buffer containing 0.1% EDTA, 1 ml of 0.25% trypsin was added, and the mixture was left to stand at 37° C. for 5 minutes. […] 4 ml of methanol and chloroform were added successively to the mass of the cells to extract all GSL, followed by evaporation to dryness. The residue was subjected to alkali hydrolysis with chloroform:methanol (1:1) containing 0.2N sodium hydroxide, neutralized with acetic acid and then evaporated to dryness. The product evaporated to dryness was dissolved in water and then desalted with a Sep-Pak C18 cartridge (Waters). The adsorbed GSL was dissolved out by 1 ml of methanol and 4 ml of chloroform:methanol (1:1) and then evaporated to dryness under a nitrogen stream. […] Thereafter, the positions of glucosylceramide, lactosylceramide and ganglioside GM3 were confirmed by iodine coloration, they were scratched off from TLC, respectively, and radioactivities thereof were measured by a liquid scintillation counter.

GD3 synthase = assay: Enzyme activity in treated cerebral cortex culture: GD3 synthase; type: cell-based, rat; conditions: culture treated with 15 μM for 40 hours; 2400 min, 15 µM
Experimental: (§1) After the mixture was cultured for 40 hours, the resulting culture was harvested and pulverized in a homogenized buffer (50 mM Hepes, 0.32M sucrose) by using a chip type sonicator to prepare an enzyme source.
GM3 as an acceptor substrate was reacted with 30 mM CMP-^14 C sialic acid (2.88×10^6 cpm) as a donor substrate. After the mixture containing a reaction product was developed by a reverse phase thin layer plate, a portion corresponding to the reaction product was scratched off, and its radioactivity was counted.

[2] = test system: rat cerebral cortex neurocytes; assay: Synapse formation measured as frequency of intracellular Ca2+ fluctuation; type: cell-based
Text: Further, as a method of measuring synapse formation relatively simply and easily, there has been developed a multipoint observation system of Ca^2+ in neurocytes using Fura-2, and it has been confirmed that the number of synapse formation is in direct proportion to frequency of intracellular Ca^2+ fluctuation in synchronization therewith (Br. J. Pharmacol., 89, 191-198, 1986; Neurosci. Lett., 78, 69-74, 1987). We investigated influences of L-threo-FDMP and D-threo-PDMP exerted on synapse formation between rat cerebral cortex neurocytes by using this method, and the results are shown below.

explants = assay: Neurite-extending activity in explants (Example 6); type: cell-based; conditions: cultured for 40 hours, FIG. 5
Experimental: 1.6×10^5 cells/well of explants were sowed in a plate with 24 wells containing a DMEM medium. […] After the mixture was cultured for 40 hours, the resulting culture was fixed and then dyed with Coomassie, and nervous fibers extended to have a length which was longer than a diameter of […] were counted.

GM3 synthase = assay: Enzyme activity in treated cerebral cortex culture: GM3 synthase; type: cell-based, rat; conditions: culture treated with 15 μM for 40 hours
Experimental: as §1
After the mixture containing a reaction product was developed by a reverse phase thin layer plate, a portion corresponding to the reaction product was scratched off, and its radioactivity was counted.

[3] = test system: rat cerebral ischemia models; assay: Antidementia effect in rat cerebral ischemia models (Example 10); type: in vivo; conditions: 2×40 mg/kg/day intraperitoneally for 6 days from 24 hours after ischemia; retention trial 12 hours after final administration; 8 rats
Experimental: After 12 hours from the final administration, retention trial was carried out.

physchem = conditions: physiological saline
GSL = conditions: J. Cell. Physiol., vol. 141, pp. 573-583 (1989); cited from earlier work
[4] = test system: serine palmitoyltransferase; assay: Enzyme activity in treated cerebral cortex culture: serine palmitoyltransferase; type: cell-based, rat; conditions: culture treated with 15 μM for 40 hours
Experimental: as §1
1.5 mM palmitoyl CoA (coenzyme A) and 0.1 mM ^14 C serine (8.3×10^5 cpm) were reacted in the presence of 0.5 mM pyridoxalphosphoric acid. After 3-keto-sphingosine which was a reaction product was extracted, the extract was concentrated and evaporated to dryness, and its radioactivity was counted.

[5] = test system: primary cultured rat cerebral neurocytes; assay: Ganglioside content (ganglioside-binding sialic acid) of primary cultured neurocytes; type: cell-based; conditions: Rattus norvegicus, 72 h, culture for 3 days, control defined as 100%
Experimental: Rat fetuses at the 18th day of pregnancy were taken out, and forebrain base portions of the fetuses were extracted aseptically and cut into small pieces by scissors. After the pieces were treated with papain (in a phosphate buffer containing 0.02% L-cysteine containing 180 U papain, 0.02% bovine serum albumin and 0.5% glucose, pH 7.4, at 37° C. for 30 minutes), they were washed with a mixed solution (DF medium) of 1:1 of a Dulbecco modified Eagle's medium and a Ham's F12 medium and suspended in a DF medium containing 5% bovine fetal serum and 5% equine serum. This neurocyte suspension was charged into a culture plate with 24 wells (Falcon, Primaria) in an amount of 1×10^6 cells/well. […] After completion of the culture, the cells in the respective wells were washed with a phosphate buffer and recovered by rubber policeman. Further, a ganglioside fraction was extracted by adding chloroform/methanol/water (1:2:0.8) and shaking the mixture for 5 minutes. […] The no addition group (control) which was defined as 100% was compared with the test groups, and the results are shown in Table 1.

**Q.** Which results are given for `CCCCCCCCCC(=O)N[C@@H](CN1CCOCC1)[C@@H](O)c1ccccc1` [L-threo-PDMP, 1-phenyl-2-decanoylamino-3-morpholino-1-propanol]?
**A.** number of neurocytes having neurites in the explants versus group to which no medicine was administered ([1]; 10 μM, cultured for 2 days, medium containing no serum): about one and half times; concentration range in which a pharmaceutical effect has been observed ([1]; culture of cerebral cortex pieces of rat fetuses): 5 to 20 µM; concentration at which a pharmaceutical effect has been observed (B16 melanoma cells): 25 µM; Accelerating activity when enzyme activity of control is defined as 100%: GD3 synthase (GD3 synthase): 300% and 302.5%; number of synapse formation (frequency of intracellular Ca2+ fluctuation) ([2]; FIG. 4): increase in the number of synapse formation depending on a dose; concentration at which a pharmaceutical effect has been observed ([2]; culture for 8 hours, neurocytes of cerebral cortexes of rat fetuses): 40 µM; concentration at which extension of neurites was the largest (explants): 15 µM; minimal effective concentration (explants; read-out: concentration at which extension of neurites was observed): ≥ 5 µM; Accelerating activity when enzyme activity of control is defined as 100%: GM3 synthase (GM3 synthase): 197.4%; rats recovered to a normal level [3]: 50%; solubility (physchem): ≤ 500 µg/mL; biosynthesis of GSL (GSL): has possibility of accelerating biosynthesis of GSL; Accelerating activity when enzyme activity of control is defined as 100%: Serine palmitoyltransferase [4]: 148.2%; activity at 20 µM [5]: 127%
